This note sets out measurements from US11279719B2, “Substituted bicyclic pyrimidine-based compounds and compositions and uses thereof” (priority 2017, dated 2022).

Read-outs that look alike come from different tables or passages of the source.

The target in one data set is recombinant human GGPPS (Homo sapiens (Human), UniProt O95749). Nature of the data set: In vitro hGGPPS inhibition assay. Conditions: for IC50: wild-type hGGPPS enzyme, average of n ≥ 3 determinations; for selectivity improved for inhibiting hGGPPS vs hFPPS: starting from the original hits, e.g. C-5. Type of data set: biochemical.
Sequence of recombinant human GGPPS (O95749 whole entry): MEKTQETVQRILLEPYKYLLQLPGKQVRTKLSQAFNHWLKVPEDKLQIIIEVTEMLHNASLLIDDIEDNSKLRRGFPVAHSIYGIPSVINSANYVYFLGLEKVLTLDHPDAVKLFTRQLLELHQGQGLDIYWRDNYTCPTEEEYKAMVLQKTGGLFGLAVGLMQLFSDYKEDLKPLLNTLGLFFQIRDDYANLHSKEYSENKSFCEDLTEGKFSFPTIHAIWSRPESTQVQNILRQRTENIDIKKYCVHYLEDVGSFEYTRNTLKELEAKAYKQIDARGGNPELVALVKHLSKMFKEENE
The target of data set [1] is T1, hFPPS (Homo sapiens (Human), UniProt P14324). The data set can be described thus: biochemical.
T1 sequence (P14324 whole entry): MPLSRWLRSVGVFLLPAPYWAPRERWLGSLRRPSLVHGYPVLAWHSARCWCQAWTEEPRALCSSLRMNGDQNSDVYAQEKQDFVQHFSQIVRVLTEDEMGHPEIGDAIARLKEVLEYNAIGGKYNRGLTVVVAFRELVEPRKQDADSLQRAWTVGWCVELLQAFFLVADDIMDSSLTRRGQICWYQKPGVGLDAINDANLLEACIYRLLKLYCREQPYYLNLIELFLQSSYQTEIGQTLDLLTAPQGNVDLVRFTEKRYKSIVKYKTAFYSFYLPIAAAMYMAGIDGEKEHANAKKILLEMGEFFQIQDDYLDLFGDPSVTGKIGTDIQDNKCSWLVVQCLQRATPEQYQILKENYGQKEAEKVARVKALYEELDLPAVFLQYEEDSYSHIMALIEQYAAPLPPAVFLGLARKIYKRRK
Data set [2] deals with T1, hFPPS. The following applies: read-out: hFPPS IC50.
In another data set the test system is RPMI-8226. Nature of the data set: MM cell viability assay (MTS proliferation). The following applies: Homo sapiens, 72 hours, average of n ≥ 8 determinations, read-out: MM cells EC50, RPMI-8226. The class given is cell-based.
A further data set concerns JJN3. The data set can be described thus: MM cell viability assay (MTS proliferation). The class given is cell-based. The following applies: Homo sapiens, JJN-3; 72 hours, average of n ≥ 8 determinations; read-out: MM cells EC50, JJN3. The method, then:
(§1) Various MM cancer cell lines (Table 3 and FIGS. 5 and 6) were cultured in RPMI-1640 medium supplemented with 10% fetal bovine serum (Gibco BRL, Gaithersburg, Md.) supplemented with 2 mM L-glutamine in a 5% CO2 atmosphere at 37° C. EC50 values for each target compound were determined using a commercial MTS proliferation assay (Promega, Madison, Wis.) following the manufacturer's instructions. Briefly, compounds were diluted directly into culture medium and then applied to cells that were seeded in 96-well plates at a density 5,000 cells per well. Cells were incubated with the indicated final concentration of compound in a total media volume of 100 μl/well for 72 hours prior to the addition of the MTS reagent. Plates were incubated at 37° C. in the presence 5% CO2 for 2 hours prior to recording OD490 using a Tecan Infinite M200Pro microplate reader. Results were analyzed to obtain dose-response curves and EC50 calculations using GraphPad PRISM version 5 for the MacIntosh (GraphPad Software, San Diego, Calif.).

The test system of data set [3] is phosphorylated Tau protein (P-Tau). The data set can be described thus: Phosphorylation of the tau protein in immortalized human neurons. The class given is cell-based. The following applies: immortalized human neurons (SH-SYSY).
For the next data set, the system named is SH-SYSY neurons. Nature of the data set: LDH toxicity assay in immortalized human neurons. The class given is cell-based.
The test system of a further data set is KMS28PE. Nature of the data set: MM cell viability assay (MTS proliferation). The class given is cell-based. Conditions: Homo sapiens, KMS-28PE; 72 hours, average of n ≥ 8 determinations; read-out: MM cells EC50, KMS28PE. As for the experimental part: as §1
In data set [4] the test system is chronic myelogenous leukemia (K562) cells. Nature of the data set: Cancer cell viability. The class given is cell-based, human. The following applies: compared to zolendronate (ZOL), FIG. 4. As for the experimental part: (§2) NCI-ADR-RES cells were obtained from National Cancer Institute (NCI) and all other cell lines were obtained from the American Type Culture Collection (ATCC). NHBE cells were maintained in Bronchial Epithelial Cell Growth Medium (BEGM) supplemented with 10% FBS (Multicell) and 2 mM L-glutamine (Gibco/Life Technologies). All other cells were maintained in culture using Roswell Park Memorial Institute (RPMI) 1640 media supplemented with 10% FBS (Multicell), Penicillin (100 U/mL), Streptomycin (100 ug/mL) and 2 mM L-glutamine (Gibco/Life Technologies). Cells were plated in logarithmic growth phase in each well of clear bottom multiwell plates and cultured 16-24 h before drug treatment. […]
(§3) Cell viability was determined by cellular quantitation of adenosine triphosphate (ATP) using the CellTiter-Glo Luminescent Cell Viability Assay Kit (Promega Corporation, Cat. No. G7571). Briefly, the CellTiter-Glo «one-mix-measure» reagent, containing both the cell permeabilizing agent and the Ultra-Glo luciferase, was added to the cell culture according to manufacturers' instructions allowing the free ATP to be released from viable cells and subsequently converted into luminescence. The luminescence generated in the reaction is directly proportional to cell viability and was quantified in a luminometer (PHERAstar FS, BMG Labtech) […]

Data set [5] has as its system acute monocytic leukemia (MOLM-13) cells. Nature of the data set: Cancer cell viability. The following applies: compared to zolendronate (ZOL), FIG. 4. The class given is cell-based, human. The method, then:
as §2, §3

Data set [6] relates to multiple myeloma cell line RPMI-8226. The data set can be described thus: Apoptosis assay in multiple myeloma cells (flow cytometry). The class given is cell-based, human. Conditions: 100 nM, 500 nM, and 1 μM, 72 h, FIG. 6. The method, then: To determine the ability of compounds of the application to induce MM cell lines to undergo apoptosis, cells were seeded at a density of 7.5×10^5/mL in medium supplemented with 10% FBS with increasing concentrations of compound (i.e. compound that inhibits hGGPPS) or vehicle alone. Following a 72 h incubation, apoptosis was determined by double staining with APC Annexin V (BD Biosciences, Mississauga ON) and eFluor 780 Viability dye (ThermoFisher Scientific) according to the manufacturer's directions. Stained samples were acquired on a BD FACSCanto II instrument (BD Biosciences, Mississauga ON) and post-acquisition analyses were performed using FlowJo (V10) software. Apoptosis of multiple myeloma cells was also determined by flow cytometry by double staining cells with Allophycocyanin (APC) conjugated Annexin V and a V450 conjugated Mouse Anti-Human CD138 monoclonal antibody, following the manufacturer's instructions (BD Biosciences, Mississauga ON).

Data set [7] in a line: in vitro. Conditions: Sprague-Dawley, rat, microsomes.
Data set [8] in a line: Lipophilicity by C-18 reversed phase HPLC relative retention. The following applies: versus zolodronic acid.
Data set [9] relates to normal human bronchial cells (NHBE). The data set can be described thus: Cell viability (CellTiter-Glo), normal cells. Type of data set: cell-based. The following applies: compared to doxorubicin, FIG. 3a. As for the experimental part:
as §2, §3
For orientation: Cellular ATP, detected with luciferase, serves as a proxy for viable cell number.

Data set [10] can be described thus: in vitro. Conditions: human, microsomes.
A short description of data set [11]: in vitro. The following applies: male, CD-1, mouse, microsomes.

Take `O=P(O)(O)C(Nc1nc(-c2ccccc2)nc2sccc12)P(=O)(O)O` [Compound C-5, reference compound]: on recombinant human GGPPS, the “Ratio of hFPPS IC50 vs hGGPPS IC50” value is recorded as roughly 7 and the half-maximal inhibitory concentration (IC50) (commonly the concentration that gives 50% inhibition) was found to be 0.082 µM. At hFPPS [1], the IC50 came to 0.54 µM.
For the molecule `O=P(O)(O)C(Nc1ncnc2sc(-c3ccccc3)cc12)P(=O)(O)O` [Compound C-10, reference compound], on hFPPS [2], the IC50 was 0.2 µM.
Take `O=P(O)(O)C(Nc1ncnc2sc(-c3ccc(C(F)(F)F)cc3)cc12)P(=O)(O)O` [Compound C-12, reference compound]: the “Ratio of hFPPS IC50 vs hGGPPS IC50” value on recombinant human GGPPS is >4 × 10^−5. The IC50 at recombinant human GGPPS was roughly 10000 µM; at hFPPS [2], 0.023 µM. Moreover, the EC50 (in general, the concentration giving half of the maximal effect) is greater than 50 µM in the data set on RPMI-8226 and greater than 10 µM in the data set on JJN3.
Taken in the same sequence, the figures for `O=P(O)(O)C(Nc1ncnc2sc(-c3ccc(OC4CC4)cc3)cc12)P(=O)(O)O` [Compound C-13, reference compound] were >7 × 10^−5, roughly 10000 µM, 0.014 µM, greater than 50 µM and greater than 10 µM.
As to `COc1ccc(C(=O)Nc2cccc(-c3nc(NC(P(=O)(O)O)P(=O)(O)O)c4ccsc4n3)c2)cc1` [Compound I-5, (((2-(3-(4-methoxybenzamido)phenyl)thieno[2,3-d]pyrimidin-4-yl)amino)methylene)bis(phosphonic acid)], the “Ratio of hFPPS IC50 vs hGGPPS IC50” value on recombinant human GGPPS stood at 12. In addition, the figures for the IC50 at recombinant human GGPPS and at hFPPS [2] were 0.085 µM and 1 µM, respectively. Also, the “Reduction in P-Tau/Total-tau protein” value in [3] is given as 43%. Besides, the EC50 with RPMI-8226 was found to be 0.38 µM; with JJN3, 1.3 µM; in the data set on KMS28PE it was 1.4 µM. The “LDH Toxicity Assay (relative toxicity compared to the control samples)” value in the data set on SH-SYSY neurons is recorded as “None observed”.
For `O=C(Nc1ccccc1)c1cccc(-c2nc(NC(P(=O)(O)O)P(=O)(O)O)c3ccsc3n2)c1` [Compound I-6, (((2-(3-(phenylcarbamoyl)phenyl)thieno[2,3-d]pyrimidin-4-yl)amino)methylene)bis(phosphonic acid)], the “blocking viability of cancer cells” value in [4] and in [5] was “more effective” in each case. On recombinant human GGPPS, the “Ratio of hFPPS IC50 vs hGGPPS IC50” value was 57. The “selectivity improved for inhibiting hGGPPS vs hFPPS” value on recombinant human GGPPS is listed as roughly 55 fold. For the same molecule, the concentration for half-maximal inhibition (IC50) came out at 0.053 µM at recombinant human GGPPS and 3 µM at hFPPS [2]. In addition, the concentration giving a half-maximal response (EC50) with RPMI-8226 was found to be 0.11 µM; in the data set on JJN3, 0.34 µM; in the data set on KMS28PE, 0.7 µM.
As for `O=C(Nc1cccc(-c2nc(NC(P(=O)(O)O)P(=O)(O)O)c3ccsc3n2)c1)c1ccccc1` [Compound I-13], on recombinant human GGPPS, the “Ratio of hFPPS IC50 vs hGGPPS IC50” value is recorded as 31. For the same molecule, the “selectivity improved for inhibiting hGGPPS vs hFPPS” value on recombinant human GGPPS is “approximately 30 fold”. Besides, the IC50 at recombinant human GGPPS came to 0.064 µM; on hFPPS [2] it was 2 µM. The concentration for a half-maximal effect (EC50) is 0.1 µM with RPMI-8226, 0.5 µM in the data set with JJN3 and 0.55 µM with KMS28PE.
In turn, `Cc1ccc(C(=O)Nc2cccc(-c3nc(NC(P(=O)(O)O)P(=O)(O)O)c4ccsc4n3)c2)cc1` [Compound I-18, (((2-(3-(4-methylbenzamido)phenyl)thieno[2,3-d]pyrimidin-4-yl)amino)methylene)bis(phosphonic acid)] registered a half-inhibitory concentration (IC50) on hFPPS [1] of 2.4 µM. The EC50 with RPMI-8226 was 0.12 µM; with JJN3, 0.6 µM; with KMS28PE, 0.62 µM.
On to `COC(C(=O)Nc1cccc(-c2nc(NC(P(=O)(O)O)P(=O)(O)O)c3ccsc3n2)c1)c1ccccc1` (stereo not drawn) [Compound I-24], for which the apoptosis entry in data set [6] was “induce apoptosis”.
`COc1ccc(NC(=O)c2cccc(-c3nc(NC(P(=O)(O)O)P(=O)(O)O)c4ccsc4n3)c2)cc1F` [Compound I-37, (((2-(3-((3-fluoro-4-methoxyphenyl)carbamoyl)phenyl)thieno[2,3-d]pyrimidin-4-yl)amino)methylene)bis(phosphonic acid)]: the half-life (in general, how long it takes for the measured level to halve) in “in vitro [7]” was 3.12 h; in “in vitro [10]”, 2.57 h; in the data set “in vitro [11]” it was 2.13 h. In addition, the “difference in relative retention time on C-18 reversed phase HPLC column (lipophilicity)” value in data set [8] is on record as “more than 7 min”. The “toxicity to normal human bronchial cells” value in [9] is “less toxic”. For the same molecule, the 50% effective concentration (EC50) in the data set on RPMI-8226 was found to be 0.15 µM; in the data set on JJN3, 0.51 µM; in the data set on KMS28PE, 0.17 µM.
Regarding `COc1ccc(NC(=O)c2cccc(-c3nc(NC(P(=O)(O)O)P(=O)(O)O)c4sccc4n3)c2)cc1F` [Compound I-42, (((2-(3-((3-fluoro-4-methoxyphenyl)carbamoyl)phenyl)thieno[3,2-d]pyrimidin-4-yl)amino)methylene)bis(phosphonic acid)], the IC50 at recombinant human GGPPS worked out at 0.085 µM. Further, the EC50 in the data set with RPMI-8226 amounted to 0.2 µM.
In the same order, the values of `COc1ccc(NC(=O)c2cccc(-c3nc(NC(P(=O)(O)O)P(=O)(O)O)c4ncsc4n3)c2)cc1F` [Compound I-43] are 0.065 µM and 0.14 µM.
`O=P(O)(O)C(O)(Cc1cccnc1)P(=O)(O)O` [RIS, Risedronic acid, reference compound]: the results for the concentration giving a half-maximal response (EC50) in the data set on JJN3 and in the data set with KMS28PE were 10 µM and 10.6 µM, respectively.
Consider `O=P(O)(O)C(O)(Cn1ccnc1)P(=O)(O)O` [ZOL, zoledronic acid, reference compound], for which, in [3], the “Reduction in P-Tau/Total-tau protein” value amounted to 50%. Besides, the 50% effective concentration (EC50) with JJN3 turned out to be 5 µM; in the data set with KMS28PE, 6.4 µM.
